Experimental data reported in patent US9695155B2, “Herbicidal substituted pyrimidinyloxy benzene compounds” (E. I. DU PONT DE NEMOURS AND COMPANY, priority 2013, dated 2017).

Legend:
[1] = system: barnyardgrass; test: Test A preemergence; assay type: in vivo, Echinochloa crus-galli; details: for Plant response rating, Barnyardgrass: 125 g ai/ha, 0 to 100 scale where 0 is no effect and 100 is complete control; for Barnyardgrass plant response rating: 500 g ai/ha, approx. 10 days
How it was run: (§1)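 Visual injury scored 0–100 (100 = complete control) against untreated controls about 10 days after treatment in a greenhouse. Test chemicals, formulated with surfactant in non-phytotoxic solvent, were sprayed on soil preemergence or on 2-10 cm, one- to two-leaf plants postemergence.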

[2] = system: large (Lg) crabgrass; test: Test A preemergence; assay type: in vivo, Digitaria sanguinalis; details: for Plant response rating, Crabgrass, Large: 125 g ai/ha, 0 to 100 scale where 0 is no effect and 100 is complete control; for Crabgrass, Large plant response rating: 500 g ai/ha, approx. 10 days
How it was run: as §1

[3] = system: giant foxtail; test: Test A preemergence; assay type: in vivo, Setaria faberii; details: for Plant response rating, Foxtail, Giant: 125 g ai/ha, 0 to 100 scale where 0 is no effect and 100 is complete control; for Foxtail, Giant plant response rating: 500 g ai/ha
How it was run: as §1

[4] = system: morningglory; test: Test A preemergence; assay type: in vivo, Ipomoea spp.; details: for Plant response rating, Morningglory: 125 g ai/ha, 0 to 100 scale where 0 is no effect and 100 is complete control; for Morningglory plant response rating: 500 g ai/ha
How it was run: as §1

[5] = system: pigweed; test: Test A preemergence; assay type: in vivo, Amaranthus retroflexus; details: for Plant response rating, Pigweed: 125 g ai/ha, 0 to 100 scale where 0 is no effect and 100 is complete control; for Pigweed plant response rating: 500 g ai/ha
How it was run: as §1

[6] = system: velvetleaf; test: Test A preemergence; assay type: in vivo, Abutilon theophrasti; details: for Plant response rating, Velvetleaf: 125 g ai/ha, 0 to 100 scale where 0 is no effect and 100 is complete control; for Velvetleaf plant response rating: 500 g ai/ha
How it was run: as §1

[7] = system: wheat; test: Test A preemergence; assay type: in vivo, Triticum aestivum; details: for Plant response rating, Wheat: 125 g ai/ha, 0 to 100 scale where 0 is no effect and 100 is complete control; for Wheat plant response rating: 500 g ai/ha
How it was run: as §1

[8] = system: corn; test: Test A preemergence; assay type: in vivo, Zea mays; details: for Plant response rating, Corn: 125 g ai/ha, 0 to 100 scale where 0 is no effect and 100 is complete control; for Corn plant response rating: 500 g ai/ha, approx. 10 days
How it was run: as §1

[9] = system: barnyardgrass; test: Test A postemergence; assay type: in vivo, Echinochloa crus-galli
How it was run: as §1

[10] = system: large (Lg) crabgrass; test: Test A postemergence; assay type: in vivo, Digitaria sanguinalis
How it was run: as §1

[11] = system: giant foxtail; test: Test A postemergence; assay type: in vivo, Setaria faberii
How it was run: as §1

[12] = system: morningglory; test: Test A postemergence; assay type: in vivo, Ipomoea spp.
How it was run: as §1

[13] = system: pigweed; test: Test A postemergence; assay type: in vivo, Amaranthus retroflexus
How it was run: as §1

[14] = system: velvetleaf; test: Test A postemergence; assay type: in vivo, Abutilon theophrasti
How it was run: as §1

[15] = system: wheat; test: Test A postemergence; assay type: in vivo, Triticum aestivum
How it was run: as §1

[16] = system: corn; test: Test A postemergence; assay type: in vivo, Zea mays
How it was run: as §1

[17] = system: rice; test: Test B flooded paddy test; assay type: in vivo, Oryza sativa; details: Flood, 250 g ai/ha, 0 to 100 scale where 0 is no effect and 100 is complete control
How it was run: (§2)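 Flooded to 3 cm at the 2-leaf stage, pots received compound through the paddy water and were kept at that depth under greenhouse conditions. After 13–15 days, effect was rated by eye relative to controls, 0 = none and 100 = complete control.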

[18] = system: sedge, umbrella; test: Test B flooded paddy test; assay type: in vivo, Cyperus difformis; details: Flood, 250 g ai/ha, 0 to 100 scale where 0 is no effect and 100 is complete control
How it was run: as §2

[19] = system: Heteranthera limosa; test: Test B flooded paddy test; assay type: in vivo; details: Flood, 250 g ai/ha, 0 to 100 scale where 0 is no effect and 100 is complete control
How it was run: as §2

[20] = system: barnyardgrass; test: Test B flooded paddy test; assay type: in vivo, Echinochloa crus-galli; details: Flood, 250 g ai/ha, 0 to 100 scale where 0 is no effect and 100 is complete control
How it was run: as §2

[21] = 0 to 100 scale, 0 no effect, 100 complete control
[22] = 0 to 100 scale, 0 no effect, 100 complete control, approx. 10 days
[23] = 125 g ai/ha, 0 to 100 scale where 0 is no effect and 100 is complete control
[24] = 500 g ai/ha, 0 to 100 scale, 0 no effect, 100 complete control

C=Cc1cnn(-c2ccccc2Oc2ncc(Cl)cn2)c1 [Compound 31]
Plant response rating, Barnyardgrass [1]: 20
Barnyardgrass plant response rating [1, 21]: 50
Plant response rating, Crabgrass, Large [2]: 50
Crabgrass, Large plant response rating [2, 21]: 90
Plant response rating, Foxtail, Giant [3]: 20
Foxtail, Giant plant response rating [3, 22]: 90
Plant response rating, Morningglory [4]: 0
Morningglory plant response rating [4, 22]: 0
Plant response rating, Pigweed [5]: 40
Pigweed plant response rating [5, 22]: 60
Plant response rating, Velvetleaf [6]: 50
Velvetleaf plant response rating [6, 22]: 90
Plant response rating, Wheat [7]: 0
Wheat plant response rating [7, 22]: 0
Plant response rating, Corn [8]: 0
Corn plant response rating [8, 21]: 0
Plant response rating, Barnyardgrass [9, 23]: 10
Plant response rating, Barnyardgrass [9, 24]: 50
Plant response rating, Crabgrass, Large [10, 23]: 50
Plant response rating, Crabgrass, Large [10, 24]: 60
Plant response rating, Foxtail, Giant [11, 23]: 40
Plant response rating, Foxtail, Giant [11, 24]: 50
Plant response rating, Morningglory [12, 23]: 0
Plant response rating, Morningglory [12, 24]: 30
Plant response rating, Pigweed [13, 23]: 40
Plant response rating, Pigweed [13, 24]: 70
Plant response rating, Velvetleaf [14, 23]: 100
Plant response rating, Velvetleaf [14, 24]: 100
Plant response rating, Wheat [15, 23]: 0
Plant response rating, Wheat [15, 24]: 0
Plant response rating, Corn [16, 23]: 0
Plant response rating, Corn [16, 24]: 20
Plant response rating, Rice [17]: 25
Plant response rating, Sedge, Umbrella [18]: 30
Plant response rating, Ducksalad [19]: 80
Plant response rating, Barnyardgrass [20]: 0

COc1ccc(Oc2ncc(Br)cn2)c(-n2cc(Br)cn2)c1 [Compound 43]
Plant response rating, Barnyardgrass [1]: 0
Barnyardgrass plant response rating [1, 21]: 10
Plant response rating, Crabgrass, Large [2]: 10
Crabgrass, Large plant response rating [2, 21]: 50
Plant response rating, Foxtail, Giant [3]: 10
Foxtail, Giant plant response rating [3, 22]: 20
Plant response rating, Morningglory [4]: 0
Morningglory plant response rating [4, 22]: 0
Plant response rating, Pigweed [5]: 0
Pigweed plant response rating [5, 22]: 20
Plant response rating, Velvetleaf [6]: 30
Velvetleaf plant response rating [6, 22]: 50
Plant response rating, Wheat [7]: 0
Wheat plant response rating [7, 22]: 0
Plant response rating, Corn [8]: 0
Corn plant response rating [8, 21]: 0
Plant response rating, Barnyardgrass [9, 23]: 0
Plant response rating, Barnyardgrass [9, 24]: 10
Plant response rating, Crabgrass, Large [10, 23]: 10
Plant response rating, Crabgrass, Large [10, 24]: 20
Plant response rating, Foxtail, Giant [11, 23]: 0
Plant response rating, Foxtail, Giant [11, 24]: 40
Plant response rating, Morningglory [12, 23]: 30
Plant response rating, Morningglory [12, 24]: 50
Plant response rating, Pigweed [13, 23]: 30
Plant response rating, Pigweed [13, 24]: 40
Plant response rating, Velvetleaf [14, 23]: 60
Plant response rating, Velvetleaf [14, 24]: 100
Plant response rating, Wheat [15, 23]: 0
Plant response rating, Wheat [15, 24]: 0
Plant response rating, Corn [16, 23]: 0
Plant response rating, Corn [16, 24]: 10
Plant response rating, Rice [17]: 0
Plant response rating, Sedge, Umbrella [18]: 0
Plant response rating, Ducksalad [19]: 75
Plant response rating, Barnyardgrass [20]: 0

Clc1cnc(Oc2ccccc2-n2ncc(Br)n2)nc1 [Compound 54, 2-[2-(4-bromo-2H-1,2,3-triazol-2-yl)phenoxy]-5-chloropyrimidine]
pest or weed control at 1000 g/ha ([1]; Echinochloa crus-galli, pre-emergence, 240 h, 1000 g ai/ha, 0 to 100 scale, 0 no effect, 100 complete control, read-out: Plant response rating, Barnyardgrass): 0%
pest or weed control at 1000 g/ha ([2]; Digitaria sanguinalis, pre-emergence, 240 h, 1000 g ai/ha, 0 to 100 scale, 0 no effect, 100 complete control, read-out: Plant response rating, Crabgrass, Large): 100%
pest or weed control at 1000 g/ha ([3]; Setaria faberi, pre-emergence, 240 h, 1000 g ai/ha, 0 to 100 scale, 0 no effect, 100 complete control, approx. 10 days, read-out: Foxtail, Giant plant response rating): 100%
pest or weed control at 1000 g/ha ([4]; Ipomoea, pre-emergence, 240 h, 1000 g ai/ha, 0 to 100 scale, 0 no effect, 100 complete control, approx. 10 days, read-out: Morningglory plant response rating): 70%
pest or weed control at 1000 g/ha ([5]; Amaranthus retroflexus, pre-emergence, 240 h, 1000 g ai/ha, 0 to 100 scale, 0 no effect, 100 complete control, approx. 10 days, read-out: Pigweed plant response rating): 100%
pest or weed control at 1000 g/ha ([6]; Abutilon theophrasti, pre-emergence, 240 h, 1000 g ai/ha, 0 to 100 scale, 0 no effect, 100 complete control, approx. 10 days, read-out: Velvetleaf plant response rating): 100%
plant injury at 1000 g/ha ([7]; Triticum aestivum, pre-emergence, 240 h, 1000 g ai/ha, 0 to 100 scale, 0 no effect, 100 complete control, approx. 10 days, read-out: Wheat plant response rating): 0%
Corn plant response rating (crop injury, 0 = no effect, 100 = complete kill) at 1000 g/ha ([8]; Zea mays, pre-emergence, 240 h, 1000 g ai/ha, 0 to 100 scale, 0 no effect, 100 complete control): 20%
pest or weed control at 1000 g/ha ([9]; Echinochloa crus-galli, post-emergence, 240 h, 1000 g ai/ha, 0 to 100 scale, 0 no effect, 100 complete control, read-out: Plant response rating Barnyardgrass): 30%
pest or weed control at 1000 g/ha ([10]; Digitaria sanguinalis, post-emergence, 240 h, 1000 g ai/ha, 0 to 100 scale, 0 no effect, 100 complete control, read-out: Plant response rating Crabgrass, Large): 100%
pest or weed control at 1000 g/ha ([11]; Setaria faberi, post-emergence, 240 h, 1000 g ai/ha, 0 to 100 scale, 0 no effect, 100 complete control, read-out: Plant response rating Foxtail, Giant): 70%
pest or weed control at 1000 g/ha ([12]; Ipomoea, post-emergence, 240 h, 1000 g ai/ha, 0 to 100 scale, 0 no effect, 100 complete control, read-out: Plant response rating Morningglory): 100%
pest or weed control at 1000 g/ha ([13]; Amaranthus retroflexus, post-emergence, 240 h, 1000 g ai/ha, 0 to 100 scale, 0 no effect, 100 complete control, read-out: Plant response rating Pigweed): 100%
pest or weed control at 1000 g/ha ([14]; Abutilon theophrasti, post-emergence, 240 h, 1000 g ai/ha, 0 to 100 scale, 0 no effect, 100 complete control, read-out: Plant response rating Velvetleaf): 80%
plant injury at 1000 g/ha ([15]; Triticum aestivum, post-emergence, 240 h, 1000 g ai/ha, 0 to 100 scale, 0 no effect, 100 complete control, read-out: Plant response rating Wheat): 0%
plant injury at 1000 g/ha ([16]; Zea mays, post-emergence, 240 h, 1000 g ai/ha, 0 to 100 scale, 0 no effect, 100 complete control, read-out: Plant response rating Corn): 50%
plant injury at 250 g/ha ([17]; Oryza sativa, read-out: Plant response rating, Rice): 0%
pest or weed control at 250 g/ha ([18]; Cyperus difformis, read-out: Plant response rating, Sedge, Umbrella): 0%
pest or weed control at 250 g/ha ([19]; Heteranthera limosa, read-out: Plant response rating, Ducksalad): 0%
pest or weed control at 250 g/ha ([20]; Echinochloa crus-galli, read-out: Plant response rating, Barnyardgrass): 0%
